# Data as given in patent US20230097009A1, “USE OF COMPOUND IN PREVENTION AND/OR TREATMENT OF PATHOGEN INFECTION IN ANIMALS” (FELICAMED BIOTECHNOLOGY CO., LTD., priority 2020, published 2023).
# Experiments:
# feline coronavirus = test: Treatment of a cat with recurrent wet FIP (Example 1): daily clinical observation, body weight, chest X-ray; assay type: in vivo; settings: for body weight: 2.5 kg at enrollment (D0)
# Protocol: A female British shorthair cat (Lele) of 2.5 kg, aged 8 month, unneutered. The cat had symptoms of increased body temperature, mental depression, decreased appetite, and increased abdominal girth in January, 2020. After 1 week, the cat was admitted. On January 18, the cat was diagnosed with feline infectious peritonitis (FIP) positive. After being treated with GS-441524 for 3 days, the cat was then administered with furosemide, Synulox®, prednisolone and itraconazole (P.O., q24h, 10 mg/kg) for 1 month. The drugs were discontinued after ascites regressed. Early in April, the disease recurred, showing decreased food intake and listlessness. […] The cat was enrolled on April 8, and was treated with the drug of the present invention at 2.0 mg/kg (SC, q24h) on days 1-14 (D1-14). Proper supportive treatments were given at the same time, including adjuvant treatment such as Moringa (a hepatoprotective drug), Lysinphirst (lysine) and Doctor Dolittle® (lactoferrin).
# The pharmaceutically active compound described above is a pure powder have the following structure. The compound was added to a 0.9% normal saline (50 mL of endotoxin-free water and 0.45 g of NaCl), and the mixture was uniformly mixed and filtered through a filter membrane to give a clarified solution. The diluted compound was stored in a plastic-sealed sterile vial, stored in a refrigerator at 4° C., slowly heated to room temperature before injection, and administered using a disposable syringe. The injection ranged across the back, starting from 2 cm posterior to the scapula to the middle of the lumbar spine, half of the distance of the adjacent chest to flank.
# The treatment was given by injection in the morning every day. […]
# The hydrothorax completely regressed since about 7 days after the treatment. The body weight increased by 9% during and after the treatment.
# [1] = system: feline infectious peritonitis virus; test: Clinical survival of cats with clinically confirmed FIP, treatment group vs control group (Example 2); assay type: in vivo, cat; settings: 7 treated vs 8 control cats with FIP; GS-441524 pre-treatment 3 days; 2.0 mg/kg SC q24h D1-D14; death or neurological symptoms = clinical death; 14 days
# Text: A total of 15 cats with clinically confirmed FIP were enrolled, with hydrothorax/ascites, positive CT value by PCR, and no neurological symptoms. 8 cats were allocated into the control group, and 7 cats were allocated into the treatment group.
# The groups were pre-treated with GS-441524 for 3 days. For the control group, necessary supportive treatment was given on D1—D14.
# The occurrence of death or neurological symptoms was judged as clinical death, and the clinical survival curve was plotted after 14 days.
# The Log Rank (Mantel-Cox) and Breslow (Generalized Wilcoxon) methods were used for validity test, and both methods indicated a significant difference (P<0.05). The above description is only for the purpose of illustrating the preferred example of the present invention, and is not intended to limit the scope of the present invention. Any modifications, equivalents and the like made without departing from the spirit and principle of the present invention should be included in the protection scope of the present invention.
# [2] = D1, cat with FIP, 2.0 mg/kg SC q24h
# [3] = D2, cat with FIP, 2.0 mg/kg SC q24h
# [4] = D3, cat with FIP, 2.0 mg/kg SC q24h
# [5] = D4, cat with FIP, 2.0 mg/kg SC q24h
# [6] = D5, cat with FIP, 2.0 mg/kg SC q24h
# [7] = D6, cat with FIP, 2.0 mg/kg SC q24h
# [8] = D7, cat with FIP, 2.0 mg/kg SC q24h
# [9] = D8, cat with FIP, 2.0 mg/kg SC q24h
# [10] = D9, cat with FIP, 2.0 mg/kg SC q24h
# [11] = D10, cat with FIP, 2.0 mg/kg SC q24h
# [12] = D11, cat with FIP, 2.0 mg/kg SC q24h
# [13] = D12, cat with FIP, 2.0 mg/kg SC q24h
# [14] = D13, cat with FIP, 2.0 mg/kg SC q24h
# [15] = D14, cat with FIP, 2.0 mg/kg SC q24h
compound,measurement,setting,value
"CN1CCC(c2ncc(-c3cnc(N)c(OCc4cccc(C#CC(C)(C)O)c4)c3)s2)CC1 [the drug of the present invention, 4-(3-(((2-amino-5-(2-(1-methylpiperidin-4-yl)thiazol-5-yl)pyridin-3-yl)oxy)methyl)phenyl)-2-methylbut-3-yn-2-ol]",Body temperature Afternoon,feline coronavirus; [2],38.6 °C
same,Defecation condition,feline coronavirus; [2],Normal
same,Respiratory state,feline coronavirus; [2],Normal
same,Body temperature Afternoon,feline coronavirus; [3],38.1 °C
same,Defecation condition,feline coronavirus; [3],Normal
same,Respiratory state,feline coronavirus; [3],Normal
same,Food intake,"feline coronavirus; D2, cat with FIP, 2.0 mg/kg SC q24h, D0 Decreased intake - 3",Improved - 4
same,Mental state,"feline coronavirus; D2, cat with FIP, 2.0 mg/kg SC q24h, D0 Listless - 3",Improved - 4
same,Body temperature Afternoon,feline coronavirus; [4],38 °C
same,Defecation condition,feline coronavirus; [4],Normal
same,Respiratory state,feline coronavirus; [4],Normal
same,Food intake,"feline coronavirus; D3, cat with FIP, 2.0 mg/kg SC q24h, D0 Decreased intake - 3",Good - 5
same,Mental state,"feline coronavirus; D3, cat with FIP, 2.0 mg/kg SC q24h, D0 Listless - 3",Good - 5
same,Body temperature Afternoon,feline coronavirus; [5],38.3 °C
same,Defecation condition,feline coronavirus; [5],Normal
same,Food intake,feline coronavirus; [5],Good
same,Mental state,feline coronavirus; [5],Good
same,Respiratory state,feline coronavirus; [5],Normal
same,Body temperature Afternoon,feline coronavirus; [6],38.3 °C
same,Defecation condition,feline coronavirus; [6],Normal
same,Food intake,feline coronavirus; [6],Good
same,Mental state,feline coronavirus; [6],Good
same,Respiratory state,feline coronavirus; [6],Normal
same,Body temperature Afternoon,feline coronavirus; [7],38.3 °C
same,Defecation condition,feline coronavirus; [7],Normal
same,Food intake,feline coronavirus; [7],Good
same,Mental state,feline coronavirus; [7],Good
same,Respiratory state,feline coronavirus; [7],Normal
same,Body temperature Afternoon,feline coronavirus; [8],38.1 °C
same,Defecation condition,feline coronavirus; [8],Normal
same,Food intake,feline coronavirus; [8],Good
same,Mental state,feline coronavirus; [8],Good
same,Respiratory state,feline coronavirus; [8],Normal
same,body weight,feline coronavirus; [8],2.75 kg
same,Body temperature Afternoon,feline coronavirus; [9],38 °C
same,Defecation condition,feline coronavirus; [9],Normal
same,Food intake,feline coronavirus; [9],Good
same,Mental state,feline coronavirus; [9],Good
same,Respiratory state,feline coronavirus; [9],Normal
same,Body temperature Afternoon,feline coronavirus; [10],38.2 °C
same,Defecation condition,feline coronavirus; [10],Normal
same,Food intake,feline coronavirus; [10],Good
same,Mental state,feline coronavirus; [10],Good
same,Respiratory state,feline coronavirus; [10],Normal
same,Body temperature Afternoon,feline coronavirus; [11],38.3 °C
same,Defecation condition,feline coronavirus; [11],Normal
same,Food intake,feline coronavirus; [11],Good
same,Mental state,feline coronavirus; [11],Good
same,Respiratory state,feline coronavirus; [11],Normal
same,Body temperature Afternoon,feline coronavirus; [12],38.4 °C
same,Defecation condition,feline coronavirus; [12],Normal
same,Food intake,feline coronavirus; [12],Good
same,Mental state,feline coronavirus; [12],Good
same,Respiratory state,feline coronavirus; [12],Normal
same,Body temperature Afternoon,feline coronavirus; [13],38.5 °C
same,Defecation condition,feline coronavirus; [13],Normal
same,Food intake,feline coronavirus; [13],Good
same,Mental state,feline coronavirus; [13],Good
same,Respiratory state,feline coronavirus; [13],Normal
same,Body temperature Afternoon,feline coronavirus; [14],38.5 °C
same,Body temperature Morning,feline coronavirus; [14],38.9 °C
same,Defecation condition,feline coronavirus; [14],Normal
same,Food intake,feline coronavirus; [14],Good
same,Mental state,feline coronavirus; [14],Good
same,Respiratory state,feline coronavirus; [14],Normal
same,Body temperature Afternoon,feline coronavirus; [15],38.4 °C
same,Body temperature Morning,feline coronavirus; [15],38.4 °C
same,Defecation condition,feline coronavirus; [15],Normal
same,Food intake,feline coronavirus; [15],Good
same,Mental state,feline coronavirus; [15],Good
same,Respiratory state,feline coronavirus; [15],Normal
same,body weight,feline coronavirus; [15],2.75 kg
same,"clinical response (appetite, mental state, weight)","feline coronavirus; after 2 weeks of treatment, cat with FIP, 2.0 mg/kg SC q24h",remarkable clinical response
same,body weight increase during and after the treatment,"feline coronavirus; cat with FIP, 2.0 mg/kg SC q24h D1-14",9%
same,body temperature maintained throughout the treatment,"feline coronavirus; cat with FIP, no fever at enrollment, 2.0 mg/kg SC q24h D1-14",38-38.5 °C
same,time after which the hydrothorax completely regressed,"feline coronavirus; cat with wet FIP (chest), 2.0 mg/kg SC q24h, chest X-ray",about 7 days
same,"clinical survival vs control group, P (Log Rank (Mantel-Cox) and Breslow (Generalized Wilcoxon))",[1],< 0.05
